# Experimental data reported in patent US10844023B2 (Washington University, priority 2017, dated 2020).
# System: CMT2A MFN2 T105M mice
# Experiment: In vivo sciatic nerve mitochondrial motility in CMT2A mice
# Parameters: species or system mouse
# Details: IM, 2 mg/kg, assessed 4 hours later
# Experimental: Sciatic nerve mitochondrial motility was measured 4 hours later. Results described in FIG. 58 are for 2 CMT2A mice per group.
compound,measurement,value
"O=C(NCCCc1nnc(C2CC2)n1-c1ccccc1)NC1CCOCC1 [Regeneurin-C/O, 1-(3-(5-cyclopropyl-4-phenyl-4H-1,2,4-triazol-3-yl)propyl)-3-(tetrahydro-2H-pyran-4-yl)urea]",Sciatic nerve axon mitochondrial motility in vivo,reverses the characteristic mitochondrial immobility in sciatic nerve axons
